The experiment deals with P388 leukemia ip, CD2F1 mice, survival T/C. Kind of experiment: NCI In Vivo Anticancer Drug Screen. Data for tumor model P388 Leukemia (intraperitoneal) in CD2F1 (CDF1) mice. The note with it: endpoint: median survival time, higher = longer survival. The method, boiled down:
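Mice carrying the transplanted tumor received test compound or vehicle. Survival was recorded in each group, and the value is the treated-group measurement divided by that of the vehicle-treated control group.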

[1] abbreviates: dose: 25.0 mg/kg/injection, schedule: Q04DX002 (ip), vehicle: Klucel (hydroxypropylcellulose) (HPC).
Setting [2] is: dose: 50.0 mg/kg/injection, schedule: Q01DX009 (ip), vehicle: Klucel (hydroxypropylcellulose) (HPC).
The mark [3] stands for this setting: dose: 100.0 mg/kg/injection, schedule: Q01DX009 (ip), vehicle: Klucel (hydroxypropylcellulose) (HPC).
[4] abbreviates: dose: 25.0 mg/kg/injection, schedule: Q01DX009 (ip), vehicle: saline.
Where [5] appears, read: dose: 12.5 mg/kg/injection, schedule: Q01DX009 (ip), vehicle: saline.
Setting [6] is: dose: 60.0 mg/kg/injection, schedule: Q01DX005 (ip), vehicle: saline with Tween-80.
Where [7] appears, read: dose: 120.0 mg/kg/injection, schedule: Q01DX005 (ip), vehicle: saline with Tween-80.
The mark [8] stands for this setting: dose: 50.0 mg/kg/injection, schedule: Q01DX009 (ip), vehicle: saline with Tween-80.
Where [9] appears, read: dose: 100.0 mg/kg/injection, schedule: Q01DX009 (ip), vehicle: saline with Tween-80.
The mark [10] stands for this setting: dose: 100.0 mg/kg/injection, schedule: Q04DX003 (ip), vehicle: saline with Tween-80.
Setting [11] is: dose: 200.0 mg/kg/injection, schedule: Q01DX009 (ip), vehicle: saline with Tween-80.
Where [12] appears, read: dose: 200.0 mg/kg/injection, schedule: Q04DX003 (ip), vehicle: saline with Tween-80.

Values joined by “and” are separate entries in the source; they are usually repeats but may differ in a detail not shown here. Identical values can stand only once. Inconclusive results and toxic doses are left out.

The record followed here is PubChem BioAssay AID330 (DTP/NCI, 2004).

Consider `C1=C[N-]c2c3c(ccc2=C1)=CC=C[N-]3.O=S(=O)(O)O.[Zn+2]`, for which the T/C by setting is: (dose: 3.12 mg/kg/injection, schedule: Q04DX002 (ip), vehicle: Klucel (hydroxypropylcellulose) (HPC)) 108 % of control; (dose: 6.25 mg/kg/injection, schedule: Q04DX002 (ip), vehicle: Klucel (hydroxypropylcellulose) (HPC)) 100 % of control; (dose: 12.5 mg/kg/injection, schedule: Q04DX002 (ip), vehicle: Klucel (hydroxypropylcellulose) (HPC)) 109 % of control; under setting [1], 111 % of control.

Take `CCCNC(C)(C)C(SS)c1ccc(C(F)(F)F)cc1` (configuration not stated): the T/C was 100 % of control (dose: 12.5 mg/kg/injection, schedule: Q01DX009 (ip), vehicle: other); 100 % of control (dose: 25.0 mg/kg/injection, schedule: Q01DX009 (ip), vehicle: other); 109 % of control (dose: 50.0 mg/kg/injection, schedule: Q01DX009 (ip), vehicle: other).

Regarding `COc1ccc(CCNc2cc3ncn(C)c(=O)c3cc2[N+](=O)[O-])cc1OC`, the T/C by setting is: (dose: 100.0 mg/kg/injection, schedule: Q04DX003 (ip), vehicle: Klucel (hydroxypropylcellulose) (HPC)) 101 % of control; (dose: 200.0 mg/kg/injection, schedule: Q04DX003 (ip), vehicle: Klucel (hydroxypropylcellulose) (HPC)) 100 % of control; (dose: 400.0 mg/kg/injection, schedule: Q04DX003 (ip), vehicle: Klucel (hydroxypropylcellulose) (HPC)) 86 % of control.

Take `O=C1c2ccccc2NC(O)c2cccn21` (configuration not stated): the T/C reads like this: (dose: 0.1 mg/kg/injection, schedule: Q01DX005 (ip), vehicle: water) 89 % of control; (dose: 0.2 mg/kg/injection, schedule: Q01DX005 (ip), vehicle: water) 91 % of control; (dose: 0.4 mg/kg/injection, schedule: Q01DX005 (ip), vehicle: water) 93 % of control; (dose: 0.8 mg/kg/injection, schedule: Q01DX005 (ip), vehicle: water) 91 % of control; (dose: 1.6 mg/kg/injection, schedule: Q01DX005 (ip), vehicle: water) 93 % of control; (dose: 5.0 mg/kg/injection, schedule: Q01DX005 (ip), vehicle: distilled water + Tween-80) 99 % of control. In addition, the T/C runs as follows: (dose: 10.0 mg/kg/injection, schedule: Q01DX005 (ip), vehicle: distilled water + Tween-80) 99 % of control; (dose: 20.0 mg/kg/injection, schedule: Q01DX005 (ip), vehicle: distilled water + Tween-80) 99 % of control; (dose: 40.0 mg/kg/injection, schedule: Q01DX005 (ip), vehicle: distilled water + Tween-80) 100 % of control; (dose: 80.0 mg/kg/injection, schedule: Q01DX005 (ip), vehicle: distilled water + Tween-80) 95 % of control.

In the case of `CCCCCc1cc(O)c2c(c1)OC(C)(C)c1ccc(C)cc1-2`, the T/C is, setting by setting: (dose: 64.0 mg/kg/injection, schedule: Q01DX009 (ip), vehicle: saline) 115 % of control; (dose: 128.0 mg/kg/injection, schedule: Q01DX009 (ip), vehicle: saline) 97 % of control; (dose: 256.0 mg/kg/injection, schedule: Q01DX009 (ip), vehicle: saline) 109 % of control; (dose: 512.0 mg/kg/injection, schedule: Q01DX009 (ip), vehicle: saline) 106 % of control.

In the case of `O=C(CNNC(=S)Nc1cccc2ccccc12)c1cccc2c1Nc1ccccc1S2`, the T/C under setting [2] was 101 % of control; the T/C under setting [3] is 103 % of control; the T/C (dose: 200.0 mg/kg/injection, schedule: Q01DX009 (ip), vehicle: Klucel (hydroxypropylcellulose) (HPC)) is 101 % of control.

As to `O=c1[nH][nH]c(=O)c2c1CCCC2`, the T/C is, setting by setting: under setting [4], 107 % of control; (dose: 50.0 mg/kg/injection, schedule: Q01DX009 (ip), vehicle: saline) 95 % of control; (dose: 100.0 mg/kg/injection, schedule: Q01DX009 (ip), vehicle: saline) 100 % of control; (dose: 200.0 mg/kg/injection, schedule: Q01DX009 (ip), vehicle: saline) 101 % of control.

As to `C(=C\c1ccncc1)/c1ccccc1`, the T/C is 92 % of control (dose: 50.0 mg/kg/injection, schedule: Q01DX005 (ip), vehicle: Klucel (hydroxypropylcellulose) (HPC)) and 90 % of control (dose: 100.0 mg/kg/injection, schedule: Q01DX005 (ip), vehicle: Klucel (hydroxypropylcellulose) (HPC)).

As to `C[N+](C)(C)CCC(=O)c1ccc(Cl)cc1`, the T/C by setting is: (dose: 3.13 mg/kg/injection, schedule: Q01DX009 (ip), vehicle: saline) 109 % of control; (dose: 6.25 mg/kg/injection, schedule: Q01DX009 (ip), vehicle: saline) 96 % of control; under setting [5], 103 % of control.

Regarding `O=c1[nH]nnc2nc(N3CCOCC3)sc12`, the T/C runs as follows: (dose: 100.0 mg/kg/injection, schedule: Q01DX001 (ip), vehicle: saline with Tween-80) 103 % of control and 95 % of control; (dose: 200.0 mg/kg/injection, schedule: Q01DX001 (ip), vehicle: saline with Tween-80) 102 % of control and 104 % of control; (dose: 300.0 mg/kg/injection, schedule: Q01DX001 (ip), vehicle: saline with Tween-80) 100 % of control.

Regarding `N#Cc1c(-c2ccc(Cl)cc2)cn2c1[nH]c(=O)c1c3c(sc12)CCCC3`, the T/C under setting [6] was 87 % of control and the T/C under setting [7] is 86 % of control.

Turning to `CCn1cc(C(=O)O)c(=O)c2cc(Cl)c(-n3cccc3)cc21`, the T/C by setting is: under setting [6], 95 % of control; under setting [7], 99 % of control; (dose: 240.0 mg/kg/injection, schedule: Q01DX005 (ip), vehicle: saline with Tween-80) 94 % of control.

In the case of `C=CC(=NC(C)(C)C)Nc1ccc(C(=O)OCC)cc1`, the T/C under setting [8] is 113 % of control and the T/C under setting [9] is 106 % of control.

With `CNC(=O)OCc1c(COC(=O)NC)c(C)n(-c2ccc(Cl)cc2)c1C`, the T/C is 160 % of control under setting [5] and 166 % of control under setting [4].

In the case of `CCCCCCCCCCCCCCS[As](C)C`, the T/C runs as follows: under setting [1], 101 % of control; (dose: 50.0 mg/kg/injection, schedule: Q04DX002 (ip), vehicle: Klucel (hydroxypropylcellulose) (HPC)) 94 % of control; (dose: 100.0 mg/kg/injection, schedule: Q04DX002 (ip), vehicle: Klucel (hydroxypropylcellulose) (HPC)) 90 % of control and 92 % of control; (dose: 400.0 mg/kg/injection, schedule: Q04DX002 (ip), vehicle: Klucel (hydroxypropylcellulose) (HPC)) 91 % of control.

Take `CC1(O)CCC2C3CCC4CC(=O)CCC4(C)C3(F)C(O)CC21C` (configuration not stated): the T/C is 100 % of control under setting [9]; 100 % of control under setting [10]; 100 % of control under setting [11]; 100 % of control under setting [12]; 95 % of control (dose: 400.0 mg/kg/injection, schedule: Q01DX009 (ip), vehicle: saline with Tween-80); 100 % of control (dose: 400.0 mg/kg/injection, schedule: Q04DX003 (ip), vehicle: saline with Tween-80).

With `CSc1cccc(NC(=O)Nc2ccc(S(N)(=O)=O)cc2)c1`, the T/C was 92 % of control under setting [2] and 87 % of control under setting [3].

`CC(=O)CC1C=CCC(CC(O)c2ccccc2)N1C` (configuration not stated): the T/C is 100 % of control (dose: 12.5 mg/kg/injection, schedule: Q01DX005 (ip), vehicle: saline); 105 % of control (dose: 25.0 mg/kg/injection, schedule: Q01DX005 (ip), vehicle: saline); 105 % of control (dose: 50.0 mg/kg/injection, schedule: Q01DX005 (ip), vehicle: saline).

On to `Nc1ccc(S(=O)(=O)c2ccc(NCC(=O)O)cc2)cc1`, for which the T/C by setting is: under setting [8], 100 % of control; (dose: 50.0 mg/kg/injection, schedule: Q04DX003 (ip), vehicle: saline with Tween-80) 100 % of control; under setting [9], 95 % of control; under setting [10], 100 % of control; under setting [11], 86 % of control; under setting [12], 100 % of control.

In the case of `COc1ccc(C(=O)C(=O)c2ccc(OC)cc2)cc1`, the T/C was 99 % of control (dose: 60.0 mg/kg/injection, schedule: Q01DX005 (ip), vehicle: Klucel (hydroxypropylcellulose) (HPC)); 98 % of control (dose: 120.0 mg/kg/injection, schedule: Q01DX005 (ip), vehicle: Klucel (hydroxypropylcellulose) (HPC)); 100 % of control (dose: 240.0 mg/kg/injection, schedule: Q01DX005 (ip), vehicle: Klucel (hydroxypropylcellulose) (HPC)).
